From the Kinase Knowledgebase extract (Sharma et al. 2016) come the findings set out here.

For this test, the target named is PIK3CG (human) (UniProt P48736). Put plainly: Assessment of PIK3CG Kinase Activity.
Sequence of PIK3CG (human) (P48736 whole entry, looked up): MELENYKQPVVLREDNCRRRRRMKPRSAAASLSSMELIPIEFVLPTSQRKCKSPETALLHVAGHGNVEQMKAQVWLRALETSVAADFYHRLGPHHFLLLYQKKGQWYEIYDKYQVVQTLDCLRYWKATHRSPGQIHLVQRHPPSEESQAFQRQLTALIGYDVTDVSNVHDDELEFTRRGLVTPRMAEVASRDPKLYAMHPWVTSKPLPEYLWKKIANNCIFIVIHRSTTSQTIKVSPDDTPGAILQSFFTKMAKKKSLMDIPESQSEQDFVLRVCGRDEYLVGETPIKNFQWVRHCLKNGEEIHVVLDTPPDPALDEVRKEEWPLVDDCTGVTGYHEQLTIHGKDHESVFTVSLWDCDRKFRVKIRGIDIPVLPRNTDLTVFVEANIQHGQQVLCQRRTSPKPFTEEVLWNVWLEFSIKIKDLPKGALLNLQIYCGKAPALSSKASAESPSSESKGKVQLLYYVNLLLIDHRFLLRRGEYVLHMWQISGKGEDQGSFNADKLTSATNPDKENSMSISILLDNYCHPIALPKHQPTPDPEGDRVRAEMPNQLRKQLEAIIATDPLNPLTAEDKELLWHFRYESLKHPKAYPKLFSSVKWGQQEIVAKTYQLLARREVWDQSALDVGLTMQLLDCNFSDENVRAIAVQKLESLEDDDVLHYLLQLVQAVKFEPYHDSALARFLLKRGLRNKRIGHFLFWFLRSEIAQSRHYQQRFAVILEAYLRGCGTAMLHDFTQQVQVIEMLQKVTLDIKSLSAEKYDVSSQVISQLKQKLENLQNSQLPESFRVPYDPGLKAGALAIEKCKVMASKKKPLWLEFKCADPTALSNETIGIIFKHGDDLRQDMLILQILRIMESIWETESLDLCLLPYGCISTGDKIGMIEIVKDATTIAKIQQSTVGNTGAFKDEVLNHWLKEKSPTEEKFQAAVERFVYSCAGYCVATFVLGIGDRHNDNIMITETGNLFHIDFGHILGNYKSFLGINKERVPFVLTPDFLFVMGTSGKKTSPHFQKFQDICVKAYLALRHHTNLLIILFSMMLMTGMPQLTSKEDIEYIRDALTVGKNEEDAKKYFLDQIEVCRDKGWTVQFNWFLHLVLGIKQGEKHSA

Consider `C[C@@H](NC(=O)Nc1nc2c(s1)-c1c(c(-c3ccccc3)nn1-c1ccccc1Cl)CC2)C(=O)N1CCN(C)CC1`, for which the IC50 was < 800 nM. Turning to `O=C(NCCCN1CCNC1=O)Nc1nc2c(s1)-c1c(c(-c3cccnc3)nn1-c1ccccc1Cl)CC2`, the IC50 is < 800 nM. The same measure for `CCn1cnc(CCNC(=O)Nc2nc3c(s2)-c2c(c(-c4cncnc4)nn2-c2ccccc2Cl)CC3)c1`: < 800 nM. Consider `CCN(CC)C(=O)N1CCC[C@@H]1CNC(=O)Nc1nc2c(s1)-c1c(c(-c3cncnc3)nn1-c1ccccc1Cl)CC2`, for which the IC50 is < 800 nM. As to `CCN(CC)CCNC(=O)Nc1nc2c(s1)-c1c(c(-c3cncnc3)nn1-c1ccccc1Cl)CC2`, the IC50 was < 800 nM. For `O=C(Nc1nc2c(s1)-c1c(c(-c3cccnc3)nn1-c1ccccc1Cl)CC2)N1CCC(NC(=O)C(F)(F)F)C1` (configuration not stated), the IC50 is < 800 nM. Take `C[C@@H](NC(=O)Nc1nc2c(s1)-c1c(c(-c3ccccc3)nn1-c1ccccc1Cl)CC2)C(=O)N1CCCCC1`: the IC50 is < 800 nM.

Turning to `NC(=O)Nc1nc2c(s1)-c1c(c(-c3cncnc3)nn1-c1ccccc1F)CC2`, the IC50 is < 800 nM. Regarding `CN(C)C(=O)Nc1nc2c(s1)-c1c(c(-c3cncnc3)nn1-c1ccccc1F)CC2`, the IC50 is < 800 nM.

As to `CCc1cnc(CCNC(=O)Nc2nc3c(s2)-c2c(c(-c4cncnc4)nn2C2CCN(C)CC2)CC3)o1`, the IC50 is < 800 nM. Turning to `CC(C)(C)CC(=O)N1CCC[C@@H]1CNC(=O)Nc1nc2c(s1)-c1c(c(-c3cncnc3)nn1-c1ccccc1Cl)CC2`, the IC50 was < 800 nM.

Take `CC(C)(C)OC(=O)N1CCCCC1CNC(=O)Nc1nc2c(s1)-c1c(c(-c3cccnc3)nn1-c1ccccc1Cl)CC2` (configuration not stated): the IC50 is < 800 nM. `O=C(NCc1cccc(CN2CCOCC2)n1)Nc1nc2c(s1)-c1c(c(-c3cncnc3)nn1-c1ccccc1Cl)CC2`: the IC50 was < 800 nM. Turning to `CN1CCN(C(=O)N2CCC[C@@H]2CNC(=O)Nc2nc3c(s2)-c2c(c(-c4cncnc4)nn2-c2ccccc2Cl)CC3)CC1`, the IC50 was < 800 nM. `CC(C)(C)OC(=O)NC1CCN(C(=O)Nc2nc3c(s2)-c2c(c(-c4cccnc4)nn2-c2ccccc2Cl)CC3)C1` (configuration not stated): the IC50 was < 800 nM.

On to `NC(=O)Nc1cccc(CNC(=O)Nc2nc3c(s2)-c2c(c(C4CC4)nn2-c2ccccc2Cl)CC3)c1`, for which the IC50 was < 800 nM. Turning to `CC(C)(C)OC(=O)NCC1CCCN1C(=O)Nc1nc2c(s1)-c1c(c(-c3cccnc3)nn1-c1ccccc1Cl)CC2` (configuration not stated), the IC50 was < 800 nM.

With `O=C(NCCc1nc(C2CC2)no1)Nc1nc2c(s1)-c1c(c(C3CC3)nn1-c1ccccc1Cl)CC2`, the IC50 is < 800 nM. In the case of `O=C(NCCn1ccnc1)Nc1nc2c(s1)-c1c(c(-c3cncnc3)nn1-c1ccccc1F)CC2`, the IC50 was < 800 nM. On to `CC(C)(C)OC(=O)N1CCC[C@H]1CNC(=O)Nc1nc2c(s1)-c1c(c(-c3cccnc3)nn1-c1ccccc1Cl)CC2`, for which the IC50 was < 800 nM. Turning to `O=C(NCCCC(=O)N1CCOCC1)Nc1nc2c(s1)-c1c(c(-c3ccccc3)nn1-c1ccccc1Cl)CC2`, the IC50 was < 800 nM. As to `COC(=O)N1CCC[C@@H]1CNC(=O)Nc1nc2c(s1)-c1c(c(-c3cncnc3)nn1-c1ccccc1Cl)CC2`, the IC50 is < 800 nM. For `O=C(Nc1nc2c(s1)-c1c(c(-c3cccnc3)nn1-c1ccccc1Cl)CC2)N1CCC(CN2CCc3ccccc3C2=O)C1` (configuration not stated), the IC50 is < 800 nM. As to `CCc1cnc(CCNC(=O)Nc2nc3c(s2)-c2c(c(Nc4ccccn4)nn2-c2ccccc2)CC3)o1`, the IC50 is < 800 nM. `O=C(NCc1cccc(N2CCNC2=O)c1)Nc1nc2c(s1)-c1c(c(-c3cncnc3)nn1-c1ccccc1Cl)CC2`: the IC50 was < 800 nM. Consider `Nc1c(Br)cc(OCC2CCN(C(=O)Nc3nc4c(s3)-c3c(c(-c5cccnc5)nn3-c3ccccc3Cl)CC4)C2)cc1Br` (configuration not stated), for which the IC50 was < 800 nM. `NS(=O)(=O)c1ccc(CNC(=O)Nc2nc3c(s2)-c2c(c(-c4cncnc4)nn2-c2ccccc2Cl)CC3)cc1`: the IC50 was < 800 nM.

With `O=C(NCCNS(=O)(=O)c1ccccn1)Nc1nc2c(s1)-c1c(c(-c3ccccc3)nn1-c1ccccc1Cl)CC2`, the IC50 was < 800 nM. On to `C[C@H](NC(=O)Nc1nc2c(s1)-c1c(c(-c3ccccc3)nn1-c1ccccc1Cl)CC2)C(=O)N1CCOCC1`, for which the IC50 is < 800 nM. Regarding `O=C(NCCN1CCCC1=O)Nc1nc2c(s1)-c1c(c(-c3ccccc3)nn1-c1ccccc1Cl)CC2`, the IC50 was < 800 nM. For the molecule `CCCn1cnc(CCNC(=O)Nc2nc3c(s2)-c2c(c(-c4ccccc4)nn2-c2cccc(Cl)c2)CC3)c1`, the IC50 was < 800 nM. Regarding `CCc1noc(CCNC(=O)Nc2nc3c(s2)-c2c(c(C4CC4)nn2-c2ccccc2Cl)CC3)n1`, the IC50 is < 800 nM. As for `O=C(Nc1nc2c(s1)-c1c(c(-c3cccnc3)nn1-c1ccccc1Cl)CC2)NC1CC1`, the IC50 was < 800 nM. For `CC(C)c1nnc(CCNC(=O)Nc2nc3c(s2)-c2c(c(-c4cccnc4)nn2-c2ccccc2Cl)CC3)o1`, the IC50 is < 800 nM. Take `O=C(NCCCN1CCOCC1)Nc1nc2c(s1)-c1c(c(-c3cncnc3)nn1-c1ccccc1Cl)CC2`: the IC50 was < 800 nM. For `CC1CC(c2ccc(O)cc2)CN1C(=O)Nc1nc2c(s1)-c1c(c(-c3cccnc3)nn1-c1ccccc1Cl)CC2` (configuration not stated), the IC50 is < 800 nM. For `CN(C)C(=O)CCNC(=O)Nc1nc2c(s1)-c1c(c(-c3cccnc3)nn1-c1ccccc1Cl)CC2`, the IC50 is < 800 nM. As to `CN(C)C(=O)CCNC(=O)Nc1nc2c(s1)-c1c(c(C3CC3)nn1-c1ccccc1Cl)CC2`, the IC50 is < 800 nM. As to `CCc1csc(CCNC(=O)Nc2nc3c(s2)-c2c(c(-c4cccnc4)nn2C2CCN(C)CC2)CC3)n1`, the IC50 is < 800 nM.

Consider `CCN1CCC[C@H]1CNC(=O)Nc1nc2c(s1)-c1c(c(-c3cccnc3)nn1-c1ccccc1Cl)CC2`, for which the IC50 is < 800 nM. With `COc1cccc(CNC(=O)Nc2nc3c(s2)-c2c(c(-c4cncnc4)nn2-c2ccccc2Cl)CC3)c1`, the IC50 was < 800 nM. As to `NC(=O)c1cccc(CNC(=O)Nc2nc3c(s2)-c2c(c(-c4cccnc4)nn2C2CCN(C4CCCC4)CC2)CC3)c1`, the IC50 was < 800 nM. Regarding `CCc1cnc(CCNC(=O)Nc2nc3c(s2)-c2c(c(-c4ccccc4)nn2-c2cccc(Cl)c2)CC3)o1`, the IC50 was < 800 nM. For the molecule `CC(C)c1noc(CCNC(=O)Nc2nc3c(s2)-c2c(c(-c4ccccc4)nn2-c2cccc(Cl)c2)CC3)n1`, the IC50 is < 800 nM. As to `O=C(NCCc1nc(C2CC2)no1)Nc1nc2c(s1)-c1c(c(-c3cccnc3)nn1-c1ccccc1Cl)CC2`, the IC50 was < 800 nM.

As for `CC(C)c1noc(CCNC(=O)Nc2nc3c(s2)-c2c(c(-c4cncnc4)nn2-c2ccccc2Cl)CC3)n1`, the IC50 is < 800 nM. Take `C[C@@H](C(=O)N1CC[C@H](CNC(=O)Nc2nc3c(s2)-c2c(c(-c4cncnc4)nn2-c2ccccc2Cl)CC3)C1)N(C)C(=O)OC(C)(C)C`: the IC50 is < 800 nM. Regarding `CCc1csc(CCNC(=O)Nc2nc3c(s2)-c2c(c(-c4ccccc4)nn2-c2cccc(Cl)c2)CC3)n1`, the IC50 was < 800 nM.

For `CN(C)C(=O)CCNC(=O)Nc1nc2c(s1)-c1c(c(-c3cccnc3)nn1C1CCN(C3CCCC3)CC1)CC2`, the IC50 is < 800 nM. Take `O=C(Nc1ccccc1)Nc1nc2c(s1)-c1c(c(-c3cncnc3)nn1-c1ccccc1Cl)CC2`: the IC50 is < 800 nM. With `CCc1cccc(CNC(=O)Nc2nc3c(s2)-c2c(c(-c4cccnc4)nn2C2CCN(C)CC2)CC3)c1`, the IC50 was < 800 nM.

In the case of `CCc1nnc(CCNC(=O)Nc2nc3c(s2)-c2c(c(-c4cncnc4)nn2-c2ccccc2Cl)CC3)o1`, the IC50 was < 800 nM.

On to `CC(C)c1cnc(CCNC(=O)Nc2nc3c(s2)-c2c(c(-c4cncnc4)nn2-c2ccccc2Cl)CC3)o1`, for which the IC50 was < 800 nM.

For the molecule `CCN(CC)CCNC(=O)Nc1nc2c(s1)-c1c(c(-c3cncnc3)nn1-c1ccccc1F)CC2`, the IC50 is < 800 nM. As to `O=C(NCCCn1ccnc1)Nc1nc2c(s1)-c1c(c(-c3cncnc3)nn1-c1ccccc1F)CC2`, the IC50 was < 800 nM. The same measure for `Cc1nn(C)cc1CNC(=O)Nc1nc2c(s1)-c1c(c(-c3cccnc3)nn1-c1ccccc1Cl)CC2`: < 800 nM.

Turning to `CCOCCNC(=O)Nc1nc2c(s1)-c1c(c(-c3ccccc3)nn1-c1ccccc1Cl)CC2`, the IC50 is < 800 nM. The same measure for `CNC(=O)[C@@H]1CCCC[C@H]1NC(=O)Nc1nc2c(s1)-c1c(c(-c3ccccc3)nn1-c1ccccc1Cl)CC2`: < 800 nM; for `CC(NC(=O)Nc1nc2c(s1)-c1c(c(-c3cccnc3)nn1-c1ccccc1Cl)CC2)c1cccc(NC(=O)OC(C)(C)C)c1` (configuration not stated): < 800 nM.

Turning to `Cn1cc(CNC(=O)Nc2nc3c(s2)-c2c(c(-c4cccnc4)nn2-c2ccccc2Cl)CC3)cn1`, the IC50 is < 800 nM. Regarding `NC(=O)N1Cc2ccc(CNC(=O)Nc3nc4c(s3)-c3c(c(-c5cccnc5)nn3-c3ccccc3Cl)CC4)cc2C1`, the IC50 is < 800 nM.

Consider `C[C@H](NC(=O)Nc1nc2c(s1)-c1c(c(-c3ccccc3)nn1-c1ccccc1Cl)CC2)C(=O)N1CCCCC1`, for which the IC50 is < 800 nM. As for `CCc1cnc(CCNC(=O)Nc2nc3c(s2)-c2c(c(-c4ccccc4)nn2-c2ccccc2Cl)CC3)o1`, the IC50 is < 800 nM. Turning to `CNC(=O)c1cccc(CNC(=O)Nc2nc3c(s2)-c2c(c(-c4cccnc4)nn2C2CCN(C4CCCC4)CC2)CC3)c1`, the IC50 is < 800 nM. The same measure for `CC(C)S(=O)(=O)NCCNC(=O)Nc1nc2c(s1)-c1c(c(-c3ccccc3)nn1-c1ccccc1Cl)CC2`: < 800 nM; for `CCn1cnc(CCNC(=O)Nc2nc3c(s2)-c2c(c(-c4ccccc4)nn2-c2cccc(Cl)c2)CC3)c1`: < 800 nM; for `CN(C)c1cccc(CNC(=O)Nc2nc3c(s2)-c2c(c(-c4cccnc4)nn2-c2ccccc2Cl)CC3)c1`: < 800 nM. Then `CS(=O)(=O)c1cccc(CNC(=O)Nc2nc3c(s2)-c2c(c(-c4cncnc4)nn2-c2ccccc2Cl)CC3)c1`, with < 800 nM; and `NC(=O)Nc1cccc(CNC(=O)Nc2nc3c(s2)-c2c(c(-c4cccnc4)nn2-c2ccccc2Cl)CC3)c1`, with < 800 nM. `CC(C)(C)COC(=O)N1CCC[C@@H]1CNC(=O)Nc1nc2c(s1)-c1c(c(-c3cncnc3)nn1-c1ccccc1Cl)CC2`: the IC50 is < 800 nM. With `CN(C)C(=O)CNC(=O)Nc1nc2c(s1)-c1c(c(-c3cccnc3)nn1C1CCN(C3CCCC3)CC1)CC2`, the IC50 was < 800 nM.

For `O=C(NC[C@H]1CCNC1)Nc1nc2c(s1)-c1c(c(-c3ccccc3)nn1-c1cccc(Cl)c1)CC2`, the IC50 was < 800 nM.

By IC50 is commonly meant the midpoint of a concentration-inhibition curve.
